For the test, the system named is STAT5 phosphorylation downstream of JAK3 in human YT cells. Briefly: pSTAT5 cell assay (IL-2 stimulated YT cells, AlphaScreen). The class given is cell-based. Particulars: IL-2 stimulation, read-out: Inhibition values (IC50) pSTAT5. The source says: STAT5 phosphorylation represents one of the proximal events in the signalling cascade downstream of JAK3 activation. Therefore STAT5 phosphorylation is an appropriate readout to assess the mechanistic effect of JAK3 inhibition. Stimulation of human YT cells, an NK-like cell line, with interleukin-2 (IL-2) results in phosphorylation of STAT5 at tyrosine residue 694 (Tyr694) that can be quantitatively measured by immunodetection with specific antibodies and an appropriate detection method, in this case AlphaScreen assay technology.
Human YT cells were grown in RPMI medium (Lonza, BE12-167) with 2 mM L-Glutamine (Invitrogen, 25030-024) and 10% heat-inactivated FBS (Invitrogen, 10106-169) and kept in a humidified incubator (37° C., 5% CO2). Cells were harvested by centrifugation, washed once with HBSS (Invitrogen, 14180-046), resuspended in HBSS at 1.5×10^6 cells/ml and 0.9×10^4 cells were seeded in 6 μl per well in a 96 well White plate (PerkinElmer, 6005569).
Test compounds were dissolved in DMSO and a 1:3 dilution series (9 steps) was prepared. To generate a dose response curve, 3 μl of fourfold concentrated compound in 4% DMSO/HBSS were added to each cell sample in the 96 well plate resulting in a final DMSO concentration of 1% DMSO. Cells were incubated for one hour in a humidified incubator (37° C., 5% CO2). To each well 3 μl of a fourfold concentrated IL-2 solution (Recombinant human IL-2, Peprotech 200-02; 120 nM solution in HBSS) was added and incubated for 30 minutes at room temperature. Cells were lysed by adding 3 μl of 5× lysis buffer (SureFire lysis buffer; Perkin Elmer, TGRS5S10K) and incubated for 10 minutes at room temperature with gentle shaking
For signal detection by AlphaScreen® technology the SureFire phospho-STAT5 (Tyr694/Tyr699) kit was used according to instructions provided by the manufacturer (Perkin Elmer, TGRS5S10K). Acceptor beads were added as recommended by the manufacturer (Reactivation buffer/Activation buffer/Acceptor beads at a ratio of 40:10:1) and incubated at room temperature for 1.5 hours with gentle shaking Then donor beads were added as recommended (Dilution buffer/Donor beads at a ratio of 20:1) and incubated at room temperature for 1.5 hours with gentle shaking Plates were read on an Envision instrument (Perkin Elmer) with the AlphaScreen protocol. Data were analysed in BioAssay using the nonlinear regression for a sigmoidal dose-response with a variable slope.
Background: In Alpha technology, singlet oxygen from a donor bead excites a nearby acceptor bead.

The structures appear in SMILES notation. Where only a bound is given, the exact number is not on record here.

A word on the IC50: it is the point on the concentration scale where inhibition reaches its midpoint. Turning to `CNC(=O)Cn1cc(Nc2ncc(Cl)c(N[C@H](CO)c3ccccc3)n2)cn1` [Compound 23, (S)-2-(4-((5-chloro-4-((2-hydroxy-1-phenylethyl)amino)pyrimidin-2-yl)amino)-1H-pyrazol-1-yl)-N-methylacetamide], the 50% inhibitory concentration (IC50) lay within 250 to 1000 nM.
Next, `CN(C)C(=O)Cn1cc(Nc2ncc(Cl)c(N[C@H](CO)c3ccccc3)n2)cn1` [Compound 30]: 250 to 1000 nM; `CC(C)NC(=O)Cn1cc(Nc2ncc(Cl)c(N[C@H](CO)c3ccccc3)n2)cn1` [Compound 67]: 250 to 1000 nM.
Next, `O=C(Cn1cc(Nc2ncc(Cl)c(N[C@H](CO)c3ccccc3)n2)cn1)NC1CC1` [Compound 68]: 250 to 1000 nM; `OC[C@@H](Nc1nc(Nc2cn[nH]c2)ncc1Cl)c1ccccc1` [Compound 75]: 250 to 1000 nM; `NC(=O)Cn1cc(Nc2ncc(Cl)c(N[C@H](CO)c3ccccc3F)n2)cn1` [Compound 78]: below 250 nM.

Source of the values: patent US20140179664A1, “Heterocyclyl Pyrimidine Analogues As JAK Inhibitors” (Cellzome Limited, priority 2011, published 2014).
